The test system of this test is IFNγ-induced NO production in RAW264.7. In words: Suppression of IFNγ-induced NO production in RAW264.7 mouse macrophages (Griess reagent, normalized to WST-1 cell viability). It counts as cell-based. The note with it: RAW264.7 cells, 2 h pre-treatment with drug (0-200 nM), then IFNγ for 24 h. Here is the method:
Nitric Oxide Production and Cell Viability. […] On the next day, cells were pre-treated with DMSO or drug (0-200 nM dose range) for 2 hours, and then treated with recombinant mouse IFNγ (R&D Systems) for 24 hours. Nitric Oxide concentration in media was determined using the Griess reagent system (Promega). Cell viability was determined using WST-1 reagent (Roche). IC50 values were determined based on the suppression of IFNγ induced Nitric Oxide production normalized to cell viability.
Background: The Griess reaction detects nitrite, a stable product of nitric oxide.

What is called IC50 is the point on the concentration scale where inhibition reaches its midpoint. On to `CC(=O)NNC(=O)CC[C@]12CCC(C)(C)C[C@H]1[C@H]1C(=O)C=C3[C@@]4(C)C=C(C#N)C(=O)[C@@H](C)[C@@H]4CC[C@@]3(C)[C@]1(C)CC2` [TX63915], for which the IC50 is 4 nM.

On to `C[C@@H]1C(=O)C(C#N)=C[C@]2(C)C3=CC(=O)[C@@H]4[C@@H]5CC(C)(C)CC[C@]5(NC(=O)c5ccccc5)CC[C@@]4(C)[C@]3(C)CC[C@@H]12` [TX63798], for which the IC50 came out at 1.5 nM.

Turning to `C[C@@H]1C(=O)C(C#N)=C[C@]2(C)C3=CC(=O)[C@@H]4[C@@H]5CC(C)(C)CC[C@]5(CCC(=O)NC5COC5)CC[C@@]4(C)[C@]3(C)CC[C@@H]12` [TX63914], the IC50 is 0.4 nM.

As for `C[C@@H]1C(=O)C(C#N)=C[C@]2(C)C3=CC(=O)[C@@H]4[C@@H]5CC(C)(C)CC[C@]5(NC(=O)N(C)C)CC[C@@]4(C)[C@]3(C)CC[C@@H]12` [TX63875], the IC50 was found to be 1.3 nM.

For `C[C@@H]1C(=O)C(C#N)=C[C@]2(C)[C@H]3CC(=O)[C@@H]4[C@@H]5CC(C)(C)CC[C@]5(COCF)CC[C@@]4(C)[C@]3(C)CC[C@@H]12` [TX63860], the IC50 came to 4.1 nM.

Regarding `C[C@@H]1C(=O)C(C#N)=C[C@]2(C)C3=CC(=O)[C@@H]4[C@@H]5CC(C)(C)CC[C@]5(CCC(=O)N5CCC5)CC[C@@]4(C)[C@]3(C)CC[C@@H]12` [TX63889], the IC50 turned out to be 0.4 nM.

Turning to `CCOC(=O)N[C@]12CCC(C)(C)C[C@H]1[C@H]1C(=O)C=C3[C@@]4(C)C=C(C#N)C(=O)[C@@H](C)[C@@H]4CC[C@@]3(C)[C@]1(C)CC2` [TX63800], the IC50 is 0.9 nM.

On to `Cc1nnc(CC[C@]23CCC(C)(C)C[C@H]2[C@H]2C(=O)C=C4[C@@]5(C)C=C(C#N)C(=O)[C@@H](C)[C@@H]5CC[C@@]4(C)[C@]2(C)CC3)o1` [TX63916], for which the IC50 came out at 0.4 nM.

As to `CNC(=O)CC[C@]12CCC(C)(C)C[C@H]1[C@H]1C(=O)C=C3[C@@]4(C)C=C(C#N)C(=O)[C@@H](C)[C@@H]4CC[C@@]3(C)[C@]1(C)CC2` [TX63886], the IC50 turned out to be 0.3 nM.

On to `CSCOC[C@]12CCC(C)(C)C[C@H]1[C@H]1C(=O)C[C@@H]3[C@@]4(C)C=C(C#N)C(=O)[C@@H](C)[C@@H]4CC[C@@]3(C)[C@]1(C)CC2` [TX63859], for which the IC50 turned out to be 14.6 nM.

For the compound `C[C@@H]1C(=O)C(C#N)=C[C@]2(C)[C@H]3CC(=O)[C@@H]4[C@@H]5CC(C)(C)CC[C@]5(C(=O)NCC(F)(F)F)CC[C@@]4(C)[C@]3(C)CC[C@@H]12` [TX63807], the IC50 was 5.8 nM.

In the case of `C[C@@H]1C(=O)C(C#N)=C[C@]2(C)C3=CC(=O)[C@@H]4[C@@H]5CC(C)(C)CC[C@]5(COC(=O)CNC(=O)OC(C)(C)C)CC[C@@]4(C)[C@]3(C)CC[C@@H]12` [TX63716], the IC50 was found to be 3.2 nM.

For `C[C@@H]1C(=O)C(C#N)=C[C@]2(C)C3=CC(=O)[C@@H]4[C@@H]5CC(C)(C)CC[C@@H]5CC[C@@]4(C)[C@]3(C)CC[C@@H]12` [TX63869], the IC50 is 3.8 nM.

In the case of `C[C@@H]1C(=O)C(C#N)=C[C@]2(C)[C@H]3CC(=O)[C@@H]4[C@@H]5CC(C)(C)CC[C@]5(C(=O)n5ccnc5)CC[C@@]4(C)[C@]3(C)CC[C@@H]12` [TX63811], the IC50 amounted to 0.3 nM.

Consider `C[C@@H]1C(=O)C(C#N)=C[C@]2(C)C3=CC(=O)[C@]4(O)[C@@H]5CC(C)(C)CC[C@]5(CO)CC[C@@]4(C)[C@]3(C)CC[C@@H]12` [TX63908], for which the IC50 stood at 0.6 nM.

`C[C@@H]1C(=O)C(C#N)=C[C@]2(C)[C@H]3CC(=O)[C@@H]4[C@@H]5CC(C)(C)CC[C@]5(C(N)=O)CC[C@@]4(C)[C@]3(C)CC[C@@H]12` [TX63816]: the IC50 was 10.2 nM.

Take `C[C@@H]1C(=O)C(C#N)=C[C@]2(C)C3=CC(=O)[C@@H]4[C@@H]5CC(C)(C)CC[C@]5(C(=O)N5CCCCC5)CC[C@@]4(C)[C@]3(C)CC[C@@H]12` [TX63880]: the IC50 is 1.6 nM.

Turning to `COCC(=O)NNC(=O)[C@]12CCC(C)(C)C[C@H]1[C@H]1C(=O)C=C3[C@@]4(C)C=C(C#N)C(=O)[C@@H](C)[C@@H]4CC[C@@]3(C)[C@]1(C)CC2` [TX63784], the IC50 came to 7.5 nM.

Regarding `CC(=O)OC[C@]12CCC(C)(C)C[C@H]1[C@@]1(O)C(=O)C=C3[C@@]4(C)C=C(C#N)C(=O)[C@@H](C)[C@@H]4CC[C@@]3(C)[C@]1(C)CC2` [TX63909], the concentration for half-maximal inhibition (IC50) came to 1.4 nM.

Turning to `CCNC(=O)[C@]12CCC(C)(C)C[C@H]1[C@H]1C(=O)C[C@@H]3[C@@]4(C)C=C(C#N)C(=O)[C@@H](C)[C@@H]4CC[C@@]3(C)[C@]1(C)CC2` [TX63680], the IC50 is 7 nM.

Take `COC(=O)[C@]12CCC(C)(C)C[C@H]1[C@H]1C(=O)C=C3[C@@]4(C)C=C(C#N)C(=O)C(C)=C4CC[C@@]3(C)[C@]1(C)CC2` [TX63448]: the IC50 stood at 75 nM.

With `COC[C@]12CCC(C)(C)C[C@H]1[C@H]1C(=O)C[C@@H]3[C@@]4(C)C=C(C#N)C(=O)[C@@H](C)[C@@H]4CC[C@@]3(C)[C@]1(C)CC2` [TX63858], the IC50 came out at 7.2 nM.

Consider `CCOC(=O)[C@]12CCC(C)(C)C[C@H]1[C@H]1C(=O)C=C3[C@@]4(C)C=C(C#N)C(=O)[C@@H](C)[C@@H]4CC[C@@]3(C)[C@]1(C)CC2` [TX63820], for which the IC50 stood at 1.5 nM.

Turning to `Cc1noc([C@]23CCC(C)(C)C[C@H]2[C@H]2C(=O)C=C4[C@@]5(C)C=C(C#N)C(=O)[C@@H](C)[C@@H]5CC[C@@]4(C)[C@]2(C)CC3)n1` [TX63787], the IC50 was 0.8 nM.

Turning to `C[C@@H]1C(=O)C(C#N)=C[C@]2(C)C3=CC(=O)[C@@H]4[C@@H]5CC(C)(C)CC[C@]5(CCCO)CC[C@@]4(C)[C@]3(C)CC[C@@H]12` [TX63918], the IC50 came out at 0.5 nM.

`CC(C)OC(=O)N[C@]12CCC(C)(C)C[C@H]1[C@H]1C(=O)C=C3[C@@]4(C)C=C(C#N)C(=O)[C@@H](C)[C@@H]4CC[C@@]3(C)[C@]1(C)CC2` [TX63819]: the IC50 was 2.7 nM.

For `C[C@@H]1C(=O)C(C#N)=C[C@]2(C)C3=CC(=O)[C@@H]4[C@@H]5CC(C)(C)CC[C@]5(NS(=O)(=O)CC(F)(F)F)CC[C@@]4(C)[C@]3(C)CC[C@@H]12` [TX63818], the IC50 amounted to 0.8 nM.

With `CCOC(=O)[C@]12CCC(C)(C)C[C@H]1[C@H]1C(=O)C[C@@H]3[C@@]4(C)C=C(C#N)C(=O)[C@@H](C)[C@@H]4CC[C@@]3(C)[C@]1(C)CC2` [TX63842], the IC50 was 6.1 nM.

For the compound `COC(=O)C1=C[C@]2(C)C3=CC(=O)[C@@H]4[C@@H]5CC(C)(C)CC[C@]5(C(=O)OC)CC[C@@]4(C)[C@]3(C)CC[C@H]2[C@H](C)C1=O` [TX63788], the IC50 was found to be 33.5 nM.

For `Cc1cn(C(=O)[C@]23CCC(C)(C)C[C@H]2[C@H]2C(=O)C=C4[C@@]5(C)C=C(C#N)C(=O)[C@@H](C)[C@@H]5CC[C@@]4(C)[C@]2(C)CC3)c(C)n1` [TX63822], the IC50 was determined as 0.7 nM.

Take `C=C1C(=O)C(C#N)=C[C@]2(C)C3=CC(=O)[C@@H]4[C@@H]5CC(C)(C)CC[C@]5(C(=O)OC)CC[C@@]4(C)[C@]3(C)CC[C@@H]12` [TX63911]: the IC50 came out at 10 nM.

Regarding `C[C@@H]1C(=O)C(C#N)=C[C@]2(C)C3=CC(=O)[C@@H]4[C@@H]5CC(C)(C)CC[C@]5(NC(=O)CC(F)(F)F)CC[C@@]4(C)[C@]3(C)CC[C@@H]12` [TX63799], the IC50 turned out to be 1.8 nM.

For the compound `COC(=O)[C@]12CCC(C)(C)C[C@H]1[C@H]1C(=O)C=C3[C@@]4(C)CC(C#N)=C(O)[C@@H](C)[C@@H]4CC[C@@]3(C)[C@]1(C)CC2` [TX63778], the IC50 is 50 nM.

`C[C@@H]1C(=O)C(C#N)=C[C@]2(C)C3=CC(=O)[C@@H]4[C@@H]5CC(C)(C)CC[C@]5(c5nnco5)CC[C@@]4(C)[C@]3(C)CC[C@@H]12` [TX63789]: the IC50 was 0.6 nM.

For `C=C1C(O)=C(C#N)C[C@]2(C)C3=CC(=O)[C@@H]4[C@@H]5CC(C)(C)CC[C@]5(C(=O)OC)CC[C@@]4(C)[C@]3(C)CC[C@@H]12` [TX63910], the IC50 was determined as 304 nM.

In the case of `C[C@@H]1C(=O)C(C#N)=C[C@]2(C)C3=CC(=O)[C@@H]4[C@@H]5CC(C)(C)CC[C@]5(O)CC[C@@]4(C)[C@]3(C)CC[C@@H]12` [TX63925], the 50% inhibitory concentration (IC50) is 0.4 nM.

Consider `C[C@@H]1C(=O)C(C#N)=C[C@]2(C)[C@H]3CC(=O)[C@@H]4[C@@H]5CC(C)(C)CC[C@]5(C(=O)NO)CC[C@@]4(C)[C@]3(C)CC[C@@H]12` [TX63814], for which the IC50 stood at 19 nM.

`CCNC(=O)CC[C@]12CCC(C)(C)C[C@H]1[C@H]1C(=O)C=C3[C@@]4(C)C=C(C#N)C(=O)[C@@H](C)[C@@H]4CC[C@@]3(C)[C@]1(C)CC2` [TX63892]: the IC50 amounted to 0.3 nM.

`C[C@@H]1C(=O)C(C#N)=C[C@]2(C)C3=C[C@@H](O)[C@@H]4[C@@H]5CC(C)(C)CC[C@]5(CO)CC[C@@]4(C)[C@]3(C)CC[C@@H]12` [TX63923]: the IC50 came to 2.5 nM.

Take `COC(=O)[C@]12CCC(C)(C)C[C@H]1[C@H]1C(=O)C=C3[C@@]4(C)C=C(C#N)C(=O)C[C@@H]4CC[C@@]3(C)[C@]1(C)CC2` [TX63614]: the IC50 was found to be 11.7 nM.

With `C[C@@H]1C(=O)C(C#N)=C[C@]2(C)[C@H]3CC(=O)[C@@H]4[C@@H]5CC(C)(C)CC[C@]5(C#N)CC[C@@]4(C)[C@]3(C)CC[C@@H]12` [TX63817], the IC50 was found to be 2.6 nM.

In the case of `C[C@@H]1C(=O)C(C#N)=C[C@]2(C)C3=CC(=O)[C@@H]4[C@@H]5CC(C)(C)CC[C@]5(NC=O)CC[C@@]4(C)[C@]3(C)CC[C@@H]12` [TX63681], the IC50 was determined as 1.6 nM.

Regarding `C[C@@H]1C(=O)C(C#N)=C[C@]2(C)[C@H]3CC(=O)[C@@H]4[C@@H]5CC(C)(C)CC[C@]5(C(=O)N5CCOCC5)CC[C@@]4(C)[C@]3(C)CC[C@@H]12` [TX63812], the IC50 was 10.1 nM.

Consider `COC(=O)[C@]12CCC(C)(C)C[C@H]1C1=CC[C@@H]3[C@@]4(C)CC(C#N)=C(OC(C)=O)[C@@H](C)[C@@H]4CC[C@@]3(C)[C@]1(C)CC2` [TX63795], for which the IC50 was > 200 nM.

Values taken from patent US9290536B2, “C4 monomethyl triterpenoid derivatives and methods of use thereof” (Reata Pharmaceuticals, Inc., priority 2011, dated 2016).
